The values below are quoted from earlier work in patent publication US7202251B2, “Bicyclic anilide spirohydantoin CGRP receptor antagonists” (Merck & Co., Inc., priority 2003, dated 2007).

The test system of series [1] is middle meningeal artery diameter. The settings on record: rats, electrical stimulation of the dura mater, prior administration.
Series [2] deals with facial blood flow. The settings on record: rat, trigeminal ganglion stimulation.
Series [3] has as its system facial blood flow. The settings on record: marmoset, electrical stimulation of the trigeminal ganglion.

Ends that are not written are not given here.

For the molecule “CGRP(8-37): a peptide CGRP antagonist (VTHRLAGLLSRSGGVVKNNFVPTNVGSKAF; ends and bridges not checked; UniProt P06881 90-119, looked up, fragment)”, the “effect on increase of middle meningeal artery diameter” value in series [1] is listed as “blocked”. The “effect on increased facial blood flow” value in the series with facial blood flow [2] is recorded as “inhibited”.

On to `NCCCC[C@H](NC(=O)[C@@H](Cc1cc(Br)c(O)c(Br)c1)NC(=O)N1CCC(N2Cc3ccccc3NC2=O)CC1)C(=O)N1CCN(c2ccncc2)CC1` [BIBN4096BS], for which the “effect on increase in facial blood flow” value with facial blood flow [3] is listed as “blocked”.
